In patent publication US20220110331A1, “COMPOSITION FOR PROMOTING GROWTH OF EFFECTIVE MICROORGANISM AND CONTROLLING PLANT DISEASE USING PREBIOTICS, AND USE THEREOF” (priority 2018, published 2022):

Assays:
[1] = test system: Streptomyces badius SP6C4 strain; test: Amino acid preference of effective microorganism on Biolog PM3B nitrogen source plate (redox dye colour); format: cell-based; conditions: 72 hours at 28° C., then dye and culture at 37° C. for 24 and 48 hours, naked eye
Method: Single colony of Streptomyces badius SP6C4 strain with deposit number of KCCM11703P was inoculated by streaking on MS medium (containing 20 g of mannitol, 20 g of soya, and 20 g of agar in 1 liter distilled water) and cultured for 7 days at 28° C. […] Thus-completed spore stock was diluted in sterile water, and, after adjusting the concentration to OD595 of 0.2±0.02, carrageenan stock (0.2% carrageenan and 50 mL distilled water) was prepared. The spore stock (1.5 mL) was admixed with 0.2% carrageenan stock (13.5 mL) and then the mixture (100 μl) was aliquoted onto a biolog plate (PM3B MICROPLATE™ Nitrogen Sources) followed by sealing the plate with a transparent film sheet. After 72 hours at 28° C., Redox dye mix MA (Biolog, Hayward, Calif.) was aliquoted to each well (10 μl per well) and sealed with a transparent film and a wrap to block the incorporation of CO2 from outside. Culture was carried out at 37° C. for 24 hours and 48 hours, respectively. […] Determination was made based on the assumption that stronger purple color corresponds to higher growth of the microorganism.

bloom blight = test: Strawberry field test, incidence rate of bloom blight; format: in vivo, Cladosporium cladosporioides; conditions: foliar application of 2% amino acid, 8 treatments with interval of 2 weeks, non-treatment group up to 50%
Method: (§1) Specifically, the test was carried out with an interval of 2 weeks during the cultivation period of strawberry. Length of 5M was set as a single section and foliar application was performed for three sections. For each section, 100 strawberries were randomly selected and incidence rate of the disease was determined. As a treatment process, each amino acid was diluted to concentration of 2% in 15 liter distilled water, and the mixture (5 liter) was applied to each section. The treatment was carried out 8 times with an interval of 2 weeks.

gray mold = test: Strawberry field test, incidence rate of gray mold; format: in vivo, Botrytis cinerea; conditions: foliar application of 2% amino acid; for incidence rate of gray mold: 8 treatments with interval of 2 weeks, non-treatment group 35%; for incidence rate of gray mold (in words): 8 treatments, decreased in order of glutamic acid, proline, tryptophan
Method: as §1

[2] = test system: Streptomyces badius SP6C4 strain; test: Growth promotion of effective microorganism by amino acids (OD600); format: cell-based; conditions: fifth day of culture, 10 μl of amino acids at 2% added, 28° C.; basal medium control OD600 0.5
Method: To 10 μl of a spore stock of Streptomyces badius SP6C4 strain (10^5 cfu/mL), 80 μl of sterile water was added. After mixing with 10 μl of amino acids at concentration of 2%, the strain was cultured in a shaking incubator at a condition of 28° C. Growth of SP6C4 strain was examined by OD600 for 5 days with an interval of 24 hours.

Fusarium oxysporum [3] = test: Wilt disease control after treating underground part of tomato plant with glutamic acid; format: in vivo; conditions: 2% glutamic acid solution 20 mL applied 2 times to tomato plant
Method: To a tomato plant grown to have aboveground part of 8 to 10 cm, 2% glutamic acid solution was applied 2 times, in an amount of 20 mL with an interval of 5 days. […] A wound was created, by using a 5 mL tip, on the underground part of plant which has been treated twice with glutamic acid for 10 days, and then the spore suspension (10 mL) was applied to a pot with diameter of 9 cm. The plant inoculated with the pathogen was transferred to a plant growth chamber which is set at 28° C. for 16 hours of light period and 25° C. for 8 hours of dark period. Then, the incidence rate of disease was determined with an interval of 1 week. As a control, a group treated only with the pathogen and a plant not treated with any were tested, each repeated 5 times.

[4] = test system: Streptomyces badius SP6C4 strain; test: Maintenance of density of effective microorganism on strawberry flowers after amino acid treatment (qPCR of lanM gene); format: in vivo; conditions: continuously maintained except the first treatment out of 8 treatments
Method: To determine whether or not the density of effective microorganism is maintained even after a treatment of the amino acids, three strawberry flowers were collected, 3 times repeatedly, in each treatment period during which the test of inhibiting gray mold by the strawberry field test of Example 3 is carried out. After transfer to the lab under cold storage, 3 flowers were added to 30 mL of 1×PBS buffer and subjected to an ultrasonication treatment for 10 minutes. 3 mL of the supernatant was centrifuged for 10 minutes at a rate of 13,000 rpm, 1 mL of the resulting supernatant was discarded, and the pellet was dissolved in the remaining supernatant (2 mL). 500 μl of the mixture was admixed with 500 μl CTAB buffer followed by DNA purification. Each DNA was subjected to qPCR (quantitative polymerase chain reaction) by using lanM gene specific primers of Streptomyces badius SP6C4 strain (forward direction: 5′-gtacggatctgcaccacga-3′ (SEQ ID NO: 1), reverse direction: 5′-[…]-3′ (SEQ ID NO: 2)).

Fusarium oxysporum [5] = test: Wilt disease control after coating tomato seeds with glutamic acid; format: in vivo; conditions: tomato seeds coated with 2% glutamic acid and 0.1% CMC, then pathogen; Day 3 (Early time) and Day 10 (Late time); pathogen only about 50% and 100%
Method: By using a concentrate of glutamic acid (20% (w/v)) and a concentrate of CMC (carboxyl methyl cellulose) (1% (w/v)) as a spreader, a mixture solution was prepared such that they have concentration of 2% and 0.1%, respectively. Forty to fifty tomato seeds of which surfaces have been sterilized with 70% (v/v) ethanol and 1% (v/v) sodium hypochlorite were added to 1 mL of the mixture solution and dried for 12 hours in a sterile bench at room temperature condition. After that, the coated seeds were planted to a square pot (3 cm×3 cm), 1 to 2 seeds per pot. Fusarium oxysporum spores as wilt pathogen were added in an amount of 3 mL with concentration of 10^5×1.0 CFU/mL. The treatment group obtained after completing pathogen inoculation to the seeds was transferred to a plant growth chamber which is set at 28° C. for 16 hours of light period and 25° C. for 8 hours of dark period. On Day 3 (Early time) and Day 10 (Late time) after transfer to a plant growth chamber, the incidence rate of wilt disease was examined. As a control, a non-treatment group and a group treated only with the pathogen were examined, each repeated 10 times.

SMILES	color change with Redox dye (stronger purple color corresponds to higher growth of the microorganism) [1]	incidence rate of gray mold (gray mold)	incidence rate of gray mold (in words) (gray mold)	other results
C[C@H](N)C(=O)O [alanine]	darkest purple color	–	–	–
N=C(N)NCCC[C@H](N)C(=O)O [arginine]	darkest purple color	–	–	–
NC(=O)C[C@H](N)C(=O)O [asparagine, reference compound]	–	about 25%	–	incidence rate of bloom blight (bloom blight): up to 40%
N[C@@H](CCC(=O)O)C(=O)O [glutamic acid]	darkest purple color	less than 15%	–	OD600 (growth of SP6C4 strain) [2]: 1.8; incidence rate of disease (wilt) (Fusarium oxysporum [3]; for 2 weeks after the initial pathogen treatment): no significant difference; incidence rate of disease (wilt) (Fusarium oxysporum [3]; from the week 4, pathogen only 100%): less than 15%; microorganism concentration (SP6C4 on strawberry flowers) [4]: ≥ 10^5 cfu/mL; incidence rate of wilt disease (Fusarium oxysporum [5]): wilt disease does not occur
O=C(O)[C@@H]1CCCN1 [proline]	–	–	incidence rate has decreased	–
N[C@@H](Cc1c[nH]c2ccccc12)C(=O)O [tryptophan]	–	–	incidence rate has decreased	–
